Laboratory results reported in patent US7625838B2, “[1, 2, 4] Triazolo [1, 5-A] pyrimidine derivatives as chromatographic adsorbent for the selective adsorption of IGG” (GE Healthcare Bio-Sciences AB, priority 2005, dated 2009).

Tests used:
Format in all cases: binding
[1] = system: two different monoclonal antibodies (MAbs) and a commercially available Fc-fragment; test: STD NMR screening for affinity towards IgG related proteins
Method: (§1) The screening procedure was based on in vitro screening using two independent in solution analytical techniques relying on saturation difference transfer NMR (STD NMR) and Surface Plasmon Resonace (SPR) methods.
In the NMR screen 69 substances were tested for affinity towards two different monoclonal antibodies (MAbs) and a commercially available Fc-fragment. Unspecific protein binding was investigated by testing for affinity towards α-amylase. Compounds that were found having affinity towards all three IgG related proteins, but no affinity towards α-amylase were assigned as potential candidates for affinity ligands towards the Fc-part of IgG.
(§2) Further structures (commercially available compounds) surrounding compound I were investigated in solution in order to optimize the affinity ligand candidate. These compounds were subject to a corresponding SPR and NMR analysis for affinity as was presented above. However this time only the Fc-fragment was used in the NMR screening while the SPR analysis was performed with the corresponding test proteins as in the first selection.

Fc-fragment = test: SPR screen, Fc-fragment
Method: as §1
(§3) In the SPR screen 53 compounds were tested (non-soluble substances were excluded) for affinity towards a monoclonal antibody and a commercially available Fc-fragment. Analysis data were corrected for the different molecular weights and are presented as percentage of the theoretical maximal response.
(§4) In order to select potential candidates for further investigations SPR data were arranged in such a way that all substances with a response higher than 10% for both Fc fragment and IgG were selected as potential candidates. These compounds were compared with the ones indicated by the NMR-screening. It turned out that most of the SPR derived hits had been rejected in NMR screen due to unspecific binding towards α-amylase.
as §2

[2] = system: monoclonal antibody (IgG); test: SPR screen, monoclonal antibody
Method: as §1, §3, §4, §2

| Structure (SMILES) | NMR affinity ([1]; second selection, only the Fc-fragment used in the NMR screening) | ranking for affinity towards Fc-fragment by SPR (Fc-fragment; second selection) | ranking for affinity towards IgG molecule as indicated by SPR ([2]; second selection) | outcome of NMR screen (affinity towards all three IgG related proteins, no affinity towards α-amylase) ([1]; STD NMR, two MAbs and Fc-fragment) | SPR response, percentage of the theoretical maximal response (Fc-fragment; Fc fragment, corrected for molecular weight) | SPR response, percentage of the theoretical maximal response ([2]; IgG (monoclonal antibody), corrected for molecular weight) |
| --- | --- | --- | --- | --- | --- | --- |
| CCOC(=O)c1c[nH]c2ncnn2c1=O [Compound II] | positive by NMR | at least medium ranking | high ranking |  |  |  |
| CC(=O)Nc1nc2[nH]c(C)c(Cc3ccccc3)c(=O)n2n1 [Compound I] |  |  |  | selected as potential affinity candidate by both methods | higher than 10% | higher than 10% |
